The text below walks through data of PubChem BioAssay (NCI).

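Results reflect a 48-hour exposure of cells in 96-well plates to compound at five concentrations. TGI: concentration producing complete growth inhibition.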

Experiment in all cases: DTP human tumour cell line panel, 48 h
Assay [1] deals with CAKI-1 renal.
Assay [2] deals with K-562 leukemia.
In assay [3] the test system is NCI-H460 lung.
Assay [4] has as its system M14 melanoma.
Assay [5] has as its system NCI-H23 lung.
Assay [6] concerns 786-0 renal.
Assay [7] has as its system SNB-19 CNS.
Assay [8] has as its system KM12 colon.
Assay [9] has as its system MALME-3M melanoma.
The subject of assay [10] is TK-10 renal.
The test system of assay [11] is MDA-MB-435.
The subject of assay [12] is BT-549 breast.
In assay [13] the test system is OVCAR-3 ovarian.
For assay [14], the system named is A498 renal.
Assay [15] has as its system SK-MEL-5 melanoma.
The subject of assay [16] is MDA-N.
The subject of assay [17] is OVCAR-8 ovarian.
In assay [18] the test system is SNB-75 CNS.
Assay [19] deals with MCF7 breast.
Assay [20] relates to HCT-15 colon.

What is called TGI is the concentration giving total growth inhibition. For `CC(C)c1cccc(C(=O)NCCN(C)C)c1[N+](=O)[O-]`, the total growth inhibition concentration (TGI) in [1], in assay [2], in [3], in assay [4], in [5] and in [6] was > 100 µM each time. Further, the TGI is > 100 µM in assay [7]; > 100 µM in assay [8]; > 100 µM in [9]; > 100 µM in assay [10]; > 100 µM in assay [11]; 97.4 µM in assay [12]. Moreover, the concentration for total growth inhibition (TGI) in assay [13], in assay [14], in assay [15], in [16], in assay [17] and in [18] was > 100 µM each time. The TGI in [19] and in assay [20] was > 100 µM each time.

Turning to `CC(=O)Oc1cc(C)c(OC(C)=O)c2c1[C@H]1CC[C@]3(C)[C@@H](OC(C)=O)CC[C@H]3[C@@H]1CC2`, the concentration for total growth inhibition (TGI) in assay [1] worked out at 31.5 µM; in assay [2], 86.1 µM; in assay [3] it was 33.1 µM; in [4], 30.2 µM; in assay [5] it was 34.8 µM; in [6] it was 43.1 µM. Also, the total growth inhibition concentration (TGI) in assay [7] amounted to 32.2 µM; in assay [8] it was 28.6 µM; in assay [9] it was 36 µM; in [10] it was 31.6 µM; in assay [11] it was 27.7 µM; in assay [12], 30.7 µM. Also, the total growth inhibition concentration (TGI) was determined as 32.1 µM in assay [13]; 32.8 µM in [14]; 31.3 µM in assay [15]; 28.2 µM in [16]; 44.7 µM in [17]; 52.1 µM in assay [18]. The TGI in [19] came out at 36.1 µM; in assay [20], 31.3 µM.

In the case of `CCCC(=O)OCC1OC(n2cc(F)c(=O)[nH]c2=O)C(F)C1OC(=O)CCC` (configuration not stated), the TGI in [1], in assay [2], in assay [3], in [4], in assay [5] and in assay [6] was > 100 µM in each case. For the same compound, the concentration for total growth inhibition (TGI) in assay [8], in [9], in assay [10], in assay [11], in assay [12] and in [13] was > 100 µM each time. Besides, the total growth inhibition concentration (TGI) in [14], in assay [15], in assay [16], in assay [17], in assay [18] and in [19] was > 100 µM each time. The TGI in [20] was > 100 µM.

As to `C/C(=N\Nc1nc2ccccc2o1)c1cc(C)ncn1`, the TGI in assay [1] is 42.5 µM; in assay [2], > 100 µM; in [3] it was 30.5 µM; in assay [4], > 34.7 µM; in assay [5], > 43.7 µM; in assay [6], 24.3 µM. The concentration for total growth inhibition (TGI) in assay [7] was > 100 µM; in assay [8], 11.7 µM; in [9], 33.1 µM; in assay [11], > 100 µM; in assay [12], > 100 µM; in assay [13], > 54.7 µM. For the same compound, the total growth inhibition concentration (TGI) in assay [14] is > 100 µM; in assay [15], 14.3 µM; in assay [16], > 100 µM; in [17], 0.0519 µM; in [18] it was 3.27 µM; in [19], > 85.3 µM. Further, the TGI in [20] came to 35.3 µM.

Take `Nc1nc(NCC2(CO)CCC2)cc(=O)[nH]1`: the TGI in [1], in [2], in [3], in [4], in assay [5] and in assay [6] was > 100 µM throughout. In addition, the concentration for total growth inhibition (TGI) in assay [7], in assay [8], in assay [9], in assay [11], in [12] and in [13] was > 100 µM each time. For the same compound, the TGI in assay [14], in assay [15], in assay [16], in assay [17], in assay [18] and in assay [19] was > 100 µM each time. The TGI in [20] was > 100 µM.

Regarding `O=C1/C(=C/c2ccccc2)CCc2ccccc21`, the concentration for total growth inhibition (TGI) in assay [1] is 32.7 µM; in assay [2] it was 20.5 µM; in [3], 65.4 µM; in [4], 37.4 µM; in assay [5], 45.8 µM; in assay [6], 34.7 µM. The concentration for total growth inhibition (TGI) in [7] was determined as 22.7 µM; in [8], 33.8 µM; in [9] it was 31.9 µM; in assay [10] it was 29.2 µM; in [11] it was 28.2 µM; in assay [12], 29.7 µM. For the same compound, the TGI in [13] came to 30.2 µM; in [14], 34.5 µM; in [15], 32.3 µM; in assay [16], 32.2 µM; in [17] it was 65.5 µM; in assay [18], 31.9 µM. Moreover, the results for the TGI in assay [19] and in [20] were 34.6 µM and 86.9 µM, respectively.

On to `C[C@H](CCC(=O)O)[C@H]1CC[C@H]2[C@@H]3[C@H](O)C[C@@H]4C[C@H](O)CC[C@]4(C)[C@H]3CC[C@]12C`, for which the TGI in assay [1] was > 100 µM; in assay [2] it was > 100 µM; in [3], 92 µM; in assay [4], 85.2 µM; in assay [5] it was 64.7 µM; in assay [6] it was > 100 µM. In addition, the TGI in assay [7], in assay [8], in assay [9], in [10], in assay [11] and in assay [12] was > 100 µM throughout. Further, the TGI in [14] is > 100 µM; in assay [16] it was > 100 µM; in [17], 37.7 µM; in assay [18], 57.4 µM; in assay [19], > 100 µM; in [20], > 100 µM.

Consider `CCCCCCCCCCCCCCCC(=O)OC(COC(C)=O)CO[P+](=O)O` (configuration not stated), for which the TGI in assay [1] is > 100 µM; in [2] it was > 100 µM; in assay [3], > 100 µM; in assay [4] it was 28.4 µM; in assay [6], 38.9 µM; in assay [7], > 100 µM. Further, the TGI is 48.4 µM in assay [8]; > 100 µM in [9]; > 100 µM in assay [10]; > 100 µM in [11]; > 100 µM in assay [12]; > 100 µM in assay [13]. Further, the concentration for total growth inhibition (TGI) in [14] is > 100 µM; in assay [15], > 100 µM; in assay [16], > 100 µM; in [17] it was 44.4 µM; in assay [18], 94 µM; in [19], > 100 µM. The compound further yielded a concentration for total growth inhibition (TGI) in [20] of 43.8 µM.

For `COc1cc2c(c(OC)c1OC)C(=O)[C@H](Br)[C@H]2NC(=O)NCCCl`, the TGI in [1], in assay [2], in [3], in [4], in assay [5] and in assay [6] was > 100 µM each time. For the same compound, the TGI in assay [7], in [8], in assay [9], in assay [10], in [11] and in assay [12] was > 100 µM throughout. The total growth inhibition concentration (TGI) in assay [13], in assay [14], in assay [15], in assay [16], in assay [17] and in [18] was > 100 µM in each case. Besides, the TGI in [19] and in assay [20] was > 100 µM throughout.

In the case of `CCOC(=O)CCC(NC(=O)c1ccc(Nc2cnc3ccc(C(F)(F)F)cc3n2)cc1)C(=O)OCC` (configuration not stated), the total growth inhibition concentration (TGI) in assay [1] was > 65.1 µM; in [2], > 100 µM; in [3] it was > 100 µM; in assay [4], > 100 µM; in assay [5] it was > 72.5 µM; in [6], > 56.6 µM. The TGI in assay [7] was > 63.7 µM; in assay [8], > 85.3 µM; in assay [9], > 100 µM; in assay [10], > 40.8 µM; in [11] it was > 100 µM; in [12], 97.1 µM. The TGI in assay [13] was > 100 µM; in [14] it was > 79 µM; in assay [15], > 100 µM; in assay [16] it was > 100 µM; in assay [17], 33.8 µM; in assay [18], 29.9 µM. The TGI in [19] and in assay [20] was > 100 µM each time.

As to `CN(C)CC1(Cc2ccccc2)CCC(Cc2ccccc2)C1=O` (configuration not stated), the TGI stood at 23.3 µM in [1]; 7.74 µM in assay [2]; 30.6 µM in assay [3]; 23.9 µM in assay [4]; 36.1 µM in [5]; 4.37 µM in [6]. Further, the concentration for total growth inhibition (TGI) in assay [7] was determined as 29.7 µM; in assay [8] it was 20.9 µM; in assay [9] it was 27.2 µM; in assay [10], 26.7 µM; in [11] it was 23.8 µM; in [12], 25.5 µM. For the same compound, the TGI in [13] worked out at 16.2 µM; in assay [14] it was 29.8 µM; in assay [15] it was 27.4 µM; in assay [16], 25 µM; in assay [17], 18.2 µM; in [18] it was 30 µM. The concentration for total growth inhibition (TGI) in assay [19] amounted to 24.9 µM; in [20], 13.3 µM.

Turning to `COc1cc2ccc1OCc1cccc(n1)COc1ccc(cc1OC)C=Nc1ccc(cc1)-c1ccc(cc1)N=C2`, the TGI in [1], in [2], in assay [3], in assay [4], in [5] and in [6] was > 100 µM throughout. For the same compound, the TGI in assay [7], in assay [8], in assay [9], in assay [10], in assay [11] and in [12] was > 100 µM in each case. For the same compound, the total growth inhibition concentration (TGI) in assay [13], in assay [14], in [15], in [16], in [17] and in assay [18] was > 100 µM each time. Further, the TGI in assay [19] and in assay [20] was > 100 µM in each case.

As to `CCO/C(O)=C(/C(=N)N1CCCC1)C(=O)Nc1ccc(F)cc1`, the concentration for total growth inhibition (TGI) is > 100 µM in assay [1]; > 100 µM in [2]; > 100 µM in [3]; > 100 µM in assay [4]; 59.4 µM in [5]; > 100 µM in assay [6]. Besides, the concentration for total growth inhibition (TGI) in [7], in assay [8], in assay [9], in [10], in assay [11] and in assay [12] was > 100 µM in each case. Moreover, the TGI in assay [13], in assay [14], in [16], in assay [17], in assay [18] and in assay [19] was > 100 µM throughout. In addition, in [20], the concentration for total growth inhibition (TGI) is > 100 µM.

With `CCOP(=O)(OCC)[C@]12C[C@@H](C)C=C[C@H]1COC2=O`, the TGI in assay [1], in assay [2], in assay [3], in [4], in assay [5] and in assay [6] was > 100 µM in each case. Moreover, the TGI in [7], in [8], in [9], in assay [10], in assay [11] and in [12] was > 100 µM each time. For the same compound, the TGI in assay [13], in assay [14], in assay [15], in assay [16], in assay [17] and in assay [18] was > 100 µM in each case. In assay [19], the TGI was > 100 µM.
